The record followed here is ChEMBL document CHEMBL1130796, “7,8-Methylenedioxy-4H-2,3-benzodiazepin-4-ones as novel AMPA receptor antagonists” (Bioorg Med Chem Lett, 1998).

What is called ED50 is the dose that gives a 50% effect, or the effect in half of the subjects. Broadly, the TD50 is the 50% point of the dose-response relation for the toxic effect studied. Low values mean harm at a small dose, high ones harm only at a large dose.

For data set [1], the species on record is Mus musculus. Description: Compound was evaluated for anticonvulsant activity against PTZ induced seizures (clonic phase) in swiss mice. The data set is classed as functional.
The species named for data set [2] is Mus musculus. Description: Compound was evaluated for anticonvulsant activity against AMPA induced seizures in DBA/2 mice( tonic phase). The data set is classed as functional.
For data set [3], the species on record is Mus musculus. Description: Compound was evaluated for anticonvulsant activity against audiogenic induced seizures after pretreatment with aniracetam (clonic phase); ND means not detected. The data set is classed as functional, organism-based.
Data set [4] is filed under the species Mus musculus. Description: Compound was evaluated for anticonvulsant activity against AMPA induced seizures in DBA/2 mice( clonic phase). Type of data set: functional.
The species named for data set [5] is Mus musculus. Description: Compound was evaluated for anticonvulsant activity against audiogenic seizures in DBA/2 mice( tonic phase). The data set is classed as functional.
The species entered for data set [6] is Mus musculus. Description: Compound was evaluated for anticonvulsant activity against audiogenic induced seizures after pretreatment with aniracetam (tonic phase); ND means not detected. The data set is classed as functional, organism-based.
The species entered for data set [7] is Mus musculus. Description: Compound was evaluated for anticonvulsant activity against audiogenic seizures in DBA/2 mice( clonic phase). The data set is classed as functional.
Data set [8] can be described thus: Compound was evaluated for toxic dose on locomotor assessed by rotarod test in mice. The data set is classed as ADME. The following applies: mouse, in vivo.
The species named for data set [9] is Mus musculus. Description: Compound was evaluated for anticonvulsant activity against MES induced seizures(tonic phase) in swiss mice. Type of data set: functional.
The species named for data set [10] is Mus musculus. Description: Compound was evaluated for anticonvulsant activity against audiogenic induced seizures after pretreatment with aniracetam (clonic phase). The data set is classed as functional.
For data set [11], the species on record is Mus musculus. Description: Compound was evaluated for anticonvulsant activity against audiogenic induced seizures after pretreatment with aniracetam (tonic phase). Type of data set: functional.
Data set [12] is described as follows: Ratio between TD50 and ED50 from the clonic phase of the audiogenic seizures was determined. The data set is classed as ADME.
The species entered for data set [13] is Mus musculus. Description: Compound was evaluated for anticonvulsant activity against audiogenic induced seizures after pretreatment with aniracetam (tonic phase); p<0.01. Type of data set: functional.
The species entered for data set [14] is Mus musculus. Description: Compound was evaluated for anticonvulsant activity against audiogenic induced seizures after pretreatment with aniracetam (clonic phase); p<0.01. The data set is classed as functional.
For data set [15], the species on record is Mus musculus. Description: Compound was evaluated for anticonvulsant activity against audiogenic induced seizures after pretreatment with aniracetam (tonic phase); p <0.01. Type of data set: functional.
The species named for data set [16] is Mus musculus. Description: Compound was evaluated for anticonvulsant activity against audiogenic induced seizures after pretreatment with aniracetam (clonic phase); p <0.01. Type of data set: functional.
Data set [17] is filed under the species Mus musculus. Description: Compound was evaluated for anticonvulsant activity against audiogenic induced seizures after pretreatment with aniracetam (clonic phase); p< 0.01. Type of data set: functional.
For data set [18], the species on record is Mus musculus. Description: Compound was evaluated for anticonvulsant activity against audiogenic induced seizures after pretreatment with aniracetam (tonic phase); p< 0.01. Type of data set: functional.

Calls of active or inactive are those of the source. The calls are words filed in the database; no cut-off is given here. Some results are limits rather than exact numbers.

On to `Nc1cccc(C2=NNC(=O)Cc3cc4c(cc32)OCO4)c1`, for which the ED50 in the data set listed under Mus musculus [1] was 11.9 mg/kg; in the data set listed under Mus musculus [2], 7.03 mg/kg; in the data set filed under Mus musculus [4] it was 8.62 mg/kg; in the data set filed under Mus musculus [5], 3.74 mg/kg; in the data set filed under Mus musculus [7] it was 5.32 mg/kg; in the data set filed under Mus musculus [9] it was 5.7 mg/kg. Also, the ED50 entry in the data set filed under Mus musculus [3] and in the data set listed under Mus musculus [6] was “inactive” throughout. The compound further yielded a TD50 in data set [8] of 29.8 mg/kg.

For `COc1cc2c(cc1OC)C(c1ccccc1)=NNC(=O)C2`, the ED50 in the data set listed under Mus musculus [1] stood at 19.1 mg/kg; in the data set listed under Mus musculus [2], 11.9 mg/kg; in the data set listed under Mus musculus [4] it was 18.5 mg/kg; in the data set listed under Mus musculus [10] it was 60.2 mg/kg; in the data set filed under Mus musculus [7], 10 mg/kg; in the data set filed under Mus musculus [9], 10.6 mg/kg. Moreover, the ED50 in the data set listed under Mus musculus [11] came out at 44 mg/kg. Besides, the TD50 in [8] was determined as 42.1 mg/kg.

For the compound `COc1ccc(C2=NNC(=O)Cc3cc4c(cc32)OCO4)cc1`, the ED50 in the data set filed under Mus musculus [5] and in the data set listed under Mus musculus [7] was greater than 37.2 mg/kg each time. In data set [8], this compound gave a TD50 greater than 62.1 mg/kg.

As to `O=C1Cc2cc3c(cc2C(c2ccccc2)=NN1)OCO3`, the ED50 in the data set filed under Mus musculus [1] is 23.1 mg/kg; in the data set filed under Mus musculus [2], 16.8 mg/kg; in the data set filed under Mus musculus [4], 20.8 mg/kg; in the data set listed under Mus musculus [5], 11.4 mg/kg; in the data set listed under Mus musculus [7], 12.1 mg/kg; in the data set filed under Mus musculus [9], 12.6 mg/kg. For the same compound, the ED50 result in the data set filed under Mus musculus [3] and in the data set filed under Mus musculus [6] was “inactive” throughout. In data set [8], this compound returned a TD50 of 44.6 mg/kg.

With `O=C1Cc2cc3c(cc2C(c2ccc(O)cc2)=NN1)OCO3`, the ED50 was determined as 14.7 mg/kg in the data set listed under Mus musculus [5] and 15.5 mg/kg in the data set filed under Mus musculus [7]. Besides, the selectivity ratio in data set [12] came out at 2.9. In data set [8], this compound showed a TD50 of 44.7 mg/kg.

On to `CC1=NN=C(c2ccc(N)cc2)c2cc3c(cc2C1)OCO3` [GYKI-52466], for which the ED50 in the data set listed under Mus musculus [1] came to 20 mg/kg; in the data set filed under Mus musculus [2], 11.9 mg/kg; in the data set listed under Mus musculus [4], 16.8 mg/kg; in the data set listed under Mus musculus [13] it was 29.3 mg/kg; in the data set listed under Mus musculus [14], 39.3 mg/kg. The TD50 in data set [8] was 22.3 mg/kg.

Turning to `COc1cc2c(cc1OC)C(c1ccc(N)cc1)=NNC(=O)C2`, the ED50 in the data set filed under Mus musculus [1] stood at 6.99 mg/kg; in the data set listed under Mus musculus [2], 7.73 mg/kg; in the data set listed under Mus musculus [4], 9.93 mg/kg; in the data set listed under Mus musculus [15] it was 18 mg/kg; in the data set listed under Mus musculus [16], 20.2 mg/kg; in the data set filed under Mus musculus [9] it was 4.92 mg/kg. This compound had a TD50 in data set [8] of 17.4 mg/kg.

In the case of `Nc1ccc(C2=NNC(=O)Cc3cc4c(cc32)OCO4)cc1`, the ED50 turned out to be 21.2 mg/kg in the data set listed under Mus musculus [1]; 8.41 mg/kg in the data set filed under Mus musculus [2]; 11.2 mg/kg in the data set listed under Mus musculus [4]; 3.22 mg/kg in the data set filed under Mus musculus [5]; 18.5 mg/kg in the data set listed under Mus musculus [17]; 6.44 mg/kg in the data set listed under Mus musculus [7]. The ED50 in the data set listed under Mus musculus [9] was found to be 9.48 mg/kg; in the data set filed under Mus musculus [18], 11.7 mg/kg. The compound further returned a TD50 in data set [8] of 29.3 mg/kg.

Take `COc1cc2c(cc1OC)C(c1cccc(N)c1)=NNC(=O)C2`: in data set [8], the TD50 stood at 15.9 mg/kg.
